Results on eight molecules are retold here after ChEMBL document CHEMBL3227956 (J Med Chem, 1979).

Structures are written as SMILES.

As usually defined, the T/C is the ratio of treated to control. In general, LD50 refers to the dose at which mortality reaches 50%. A lower LD50 goes with greater toxicity.

The test system of series [1] is Mus musculus. As to the kind of experiment: Toxicity in mouse allografted with mouse L1210 cells assessed as survival rate at 500 mg/kg, ip administered on day 1 measured on day 30 relative to control. The note with it: in vivo. The series is classed as organism-based. On the set-up: dose 500 mg/kg, route intraperitoneal.
Series [2] relates to L1210. Description: Antitumor activity against mouse L1210 cells allografted in mouse assessed as increase in survival rate at 500 mg/kg, ip administered on day 1 measured on day 30 relative to control. The note with it: route intraperitoneal. The series is classed as functional.
Series [3] is described as follows: Hydrolytic stability in CDCl3 assessed as formation of 3-ammonio-2-bromopropyl phenylphosphonate measured within 2 hrs by NMR analysis. The series is classed as physicochemical.
Series [4] is described as follows: Hydrolytic stability in deuteriochloroform. The series is classed as physicochemical.
Series [5] in a line: Hydrolytic stability in D2O/Me2SO-d6 assessed as formation of 3-ammonio-2-bromopropyl phenylphosphonate at 37 degC after 24 hrs by NMR analysis. The series is classed as physicochemical.
Series [6] concerns Mus musculus. As to the kind of experiment: Toxicity in mouse allografted with mouse L1210 cells assessed as survival rate at 250 mg/kg, ip administered on day 1 measured on day 30 relative to control. On the set-up: dose 250 mg/kg, route intraperitoneal. The class given is organism-based. The following applies: in vivo.
The test system of series [7] is Mus musculus. As to the kind of experiment: Toxicity in mouse allografted with mouse L1210 cells assessed as survival rate at 62.5 mg/kg, ip administered on day 1 measured on day 30 relative to control. The note with it: in vivo. Further details: dose 62.5 mg/kg, route intraperitoneal. The class given is organism-based.
Series [8] deals with L1210. Description: Antitumor activity against mouse L1210 cells allografted in mouse assessed as increase in survival rate at 62.5 mg/kg, ip administered on day 1 measured on day 30 relative to control. The class given is functional. The note with it: route intraperitoneal.
The test system of series [9] is L1210. As to the kind of experiment: Antitumor activity against mouse L1210 cells allografted in mouse assessed as increase in survival rate at 150 mg/kg, ip administered on day 1 measured on day 30 relative to control. The note with it: route intraperitoneal. The class given is functional.
Series [10] relates to Mus musculus. As to the kind of experiment: Toxicity in mouse allografted with mouse L1210 cells assessed as survival rate at 150 mg/kg, ip administered on day 1 measured on day 30 relative to control. The class given is organism-based. On the set-up: dose 150 mg/kg, route intraperitoneal. The note with it: in vivo.
Series [11] is described as follows: Therapeutic index, ratio of LD50 for mouse allografted with mouse ADJ/PC6 cells to ED90 for mouse ADJ/PC6 cells allografted in mouse.
Series [12] relates to W256. Description: Cytotoxicity against rat Walker 256 cells assessed as growth inhibition in absence of microsomal activation. The following applies: W256, read-out: ID50.
A short description of series [13]: Toxicity in mouse allografted with mouse ADJ/PC6 cells.
Series [14] relates to W256. Description: Cytotoxicity against rat Walker 256 cells assessed as growth inhibition in presence of microsomal activation. The note with it: W256, read-out: ID50.
The test system of series [15] is ADJ/PC6. As to the kind of experiment: Antitumor activity against mouse ADJ/PC6 cells allografted in mouse.

Regarding `O=P12OCCCN1CCN2CCCl` (stereo not drawn), in [1], the Activity result is “Non-toxic”. The T/C in [2] came out at 105%.
In the case of `O=P1(c2ccccc2)NCC(Br)CO1` (stereo not drawn), the Stability result is “Unstable” in [3], “Stable” in [4] and “Unstable” in series [5].
As to `[O-][P@@+]1(c2ccccc2)NC[C@@H](Br)CO1` (single isomer, unassigned; fast eluting), in series [6], the Activity result was “Non-toxic”.
Take `[O-][P@@+]1(Oc2ccccc2)NC[C@@H](Br)CO1` (single isomer, unassigned; fast eluting): the Activity entry in series [7] was “Non-toxic”. In series [8], the T/C is reported as 107%.
On to `[O-][P@@+]1(Oc2ccccc2)NC[C@H](Br)CO1` (racemic), for which, in series [9], the T/C is reported as 113%. The Activity result in [10] was “Non-toxic”.
As for `O=P1(N2CC2)OCCCN1CCCl` (stereo not drawn), the T/C in series [8] is recorded as 110%.
With `O=P1(N(CCCl)CCCl)NCCCO1` (racemic) [CYCLOPHOSPHAMIDE ANHYDROUS], the selectivity ratio in series [11] was found to be 95. Also, the IC50 in series [12] was > 500 µg/mL; in [14], 0.5 µg/mL. This molecule also had a median lethal dose (LD50) in [13] of 450 mg/kg. For the same molecule, the Activity entry in series [6] was “Non-toxic”. In [15], the ED90 stood at 4.75 mg/kg.
`O=P1(Oc2ccccc2)NCC(Br)CO1` (stereo not drawn): the Stability result in series [5] is “Stable”.
